Data as given in patent US7208517B1, “Endothelin antagonists” (Abbott Labortories, priority 1994, dated 2007).

Legend:
[1] = biological target: T1, ETA receptor in MMQ cells (rET-A) (Rattus norvegicus, UniProt P26684); test: ETA/ETB selectivity: (125I)ET-1 competition binding, ETA assay in MMQ cell membranes (rET-A); settings: MMQ cell membranes; 0.1 nM (125I)ET-1; read-out: rET-A IC50
T1 construct: endogenous in cells; host or cells: MMQ rat pituitary cells (membranes)
T1 sequence (P26684 21-426): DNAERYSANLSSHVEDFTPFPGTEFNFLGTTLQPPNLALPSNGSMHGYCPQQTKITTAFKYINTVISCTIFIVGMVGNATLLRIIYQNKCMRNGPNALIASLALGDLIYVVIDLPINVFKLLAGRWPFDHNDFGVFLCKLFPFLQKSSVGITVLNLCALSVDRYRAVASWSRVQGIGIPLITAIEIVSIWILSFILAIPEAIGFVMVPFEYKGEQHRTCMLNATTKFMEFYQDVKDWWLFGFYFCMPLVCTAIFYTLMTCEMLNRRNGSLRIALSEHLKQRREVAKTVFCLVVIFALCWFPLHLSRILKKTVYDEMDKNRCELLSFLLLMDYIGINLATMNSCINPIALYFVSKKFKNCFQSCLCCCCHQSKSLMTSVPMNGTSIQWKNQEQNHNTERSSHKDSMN
Protocol: (§1) The mixture was centrifuged at 1000×g for 10 min. The supernatant was collected and centrifuged at 60,000×g for 60 min. The precipitate was resuspended in 20 mM Tris, pH 7.4 containing protease inhibitor and centrifuged again. The final membrane pellet was resuspended in 20 mM Tris, pH 7.4 containing protease inhibitors and stored at −80° C. until used. Protein content was determined by the Bio-Rad dye-binding protein assay.
(§2) Binding assays were performed in 96-well microtiter plates pretreated with 0.1% BSA. […] After incubation, unbound ligands were separated from bound ligands by a vacuum filtration method using glass-fiber filter strips in PHD cell harvesters (Cambridge Technology, Inc., MA), washing the filter strips three times with saline (1 mL). Nonspecific binding was determined in the presence of 1 μM ET-1. IC50 values are calculated using an average of at least two separate determinations.

[2] = biological target: T2, human ETA receptor (Homo sapiens, UniProt P25101); test: ETA/ETB selectivity: (125I)ET-1 competition binding, CHO cells transfected with human ETA receptor (hET-A); settings: CHO cells transfected with human ETA receptor; 0.1 nM (125I)ET-1; read-out: hET-A IC50
T2 construct: expressed in transfected cells; host or cells: CHO cells, permanently transfected
T2 sequence (P25101 21-427): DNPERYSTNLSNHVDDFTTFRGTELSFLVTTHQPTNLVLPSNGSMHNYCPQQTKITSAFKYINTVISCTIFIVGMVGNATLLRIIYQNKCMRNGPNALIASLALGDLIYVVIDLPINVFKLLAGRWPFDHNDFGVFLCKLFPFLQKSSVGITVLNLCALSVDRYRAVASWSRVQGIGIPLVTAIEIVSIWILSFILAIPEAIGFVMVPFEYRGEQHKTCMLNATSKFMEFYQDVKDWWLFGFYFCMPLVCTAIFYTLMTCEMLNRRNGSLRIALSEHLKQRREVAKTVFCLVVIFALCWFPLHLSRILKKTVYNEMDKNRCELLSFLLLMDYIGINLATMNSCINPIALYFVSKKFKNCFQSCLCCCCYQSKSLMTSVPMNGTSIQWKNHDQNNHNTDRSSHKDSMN
Protocol: as §1, §2

[3] = biological target: T3, ETB receptors of porcine cerebellar tissues (pET-B) (Sus scrofa, UniProt P35463); test: ETA/ETB selectivity: (125I)ET-3 competition binding, ETB assay in porcine cerebellum membranes (pET-B); settings: porcine cerebellum membranes; 0.1 nM (125I)ET-3; read-out: pET-B IC50
T3 construct: porcine cerebellar tissues (known to contain ETB receptors); from tissue; host or cells: porcine cerebellum (membranes)
T3 sequence (P35463 27-443): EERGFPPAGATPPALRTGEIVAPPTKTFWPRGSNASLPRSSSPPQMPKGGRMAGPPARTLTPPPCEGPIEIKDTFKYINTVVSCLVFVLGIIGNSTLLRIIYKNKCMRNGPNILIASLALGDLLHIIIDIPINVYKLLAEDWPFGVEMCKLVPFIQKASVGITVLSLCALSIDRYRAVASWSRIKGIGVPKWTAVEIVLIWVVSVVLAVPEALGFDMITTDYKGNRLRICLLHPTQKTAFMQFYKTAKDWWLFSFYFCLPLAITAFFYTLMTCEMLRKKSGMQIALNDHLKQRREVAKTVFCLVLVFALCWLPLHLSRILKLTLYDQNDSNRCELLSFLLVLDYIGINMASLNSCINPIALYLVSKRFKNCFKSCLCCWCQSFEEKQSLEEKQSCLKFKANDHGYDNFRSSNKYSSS

[4] = biological target: T4, ETA Receptor (Rattus norvegicus, UniProt P26684); test: [125I]ET-1 binding to membranes from MMQ cells (ETA receptor binding assay, Table 4); settings: test compound at 1 μM; 0.1 nM [125I]ET-1, MMQ cell membranes, 4 hours at 25° C.; read-out: % Inhibition of ETA at 1 μM
T4 construct: endogenous in cells; host or cells: MMQ rat pituitary cells (membranes)
T4 sequence (P26684 21-426): T1 sequence (P26684 21-426)

| SMILES | IC50 [1] [nM] | IC50 [2] [nM] | IC50 [3] [nM] | inhibition at 1 µM [4] [%] |
| --- | --- | --- | --- | --- |
| CCCCN(CCCC)C(=O)CN1CC(c2ccc3c(c2)OCO3)C(C(=O)O)C1CC(C)(C)CCC (centres unmarked) [compound 503] | 1.4 | 0.92 | 50000 | 97 |
| CCCCN(CCCC)C(=O)CN1CC(c2ccc3c(c2)OCO3)C(C(=O)O)C1CCC1OCCO1 (centres unmarked) [compound 504] | 3.1 | 4.6 | > 100000 | 97.1 |
| CCCCN(CCCC)C(=O)CN1CC(c2ccc3c(c2)OCO3)C(C(=O)O)C1CCC1CCCCO1 (centres unmarked) [compound 505] | 2 | 5.7 | 60000 | 95.8 |
| CCCCN(CCCC)C(=O)CN1CC(c2ccc3c(c2)OCO3)C(C(=O)O)C1CC(C)(C)C=C(C)C (centres unmarked) [compound 506] | 3.2 | 3 | > 100000 | 99.7 |
| CCCCN(CCCC)C(=O)CN1CC(c2ccc3c(c2)OCO3)C(C(=O)O)C1CC(C)(C)C1OCCO1 (centres unmarked) [compound 507] | 3 | 1.63 | > 100000 | 99.3 |
| CCCCN(CCCC)C(=O)CN1CC(c2cc(OC)c3c(c2)OCO3)C(C(=O)O)C1CCC1OCCO1 (centres unmarked) [compound 509] | 0.56 | 0.51 | 30000 | 100 |
| CCCCN(CCCC)C(=O)CN1CC(c2ccc3c(c2)OCO3)C(C(=O)O)C1COc1ccccc1OC (centres unmarked) [compound 510] | 0.5 | 1 | 35000 | 100 |

Next, values leading:

| IC50 [1] [nM] | IC50 [2] [nM] | IC50 [3] [nM] | inhibition at 1 µM [4] [%] | SMILES |
| --- | --- | --- | --- | --- |
| 0.3 | 0.36 | 8800 | 98 | CCCC(CCC)N(C(=O)CN1CC(c2cc(OC)c3c(c2)OCO3)C(C(=O)O)C1CCC1OCCO1)c1ccc(F)c(C)c1 (centres unmarked) [compound 513] |
| 1.6 | 6.7 | > 62000 | 99.1 | CCCCN(CCCC)C(=O)CN1C[C@H](c2ccc3c(c2)CCO3)[C@@H](C(=O)O)[C@@H]1CC(C)(C)CCC [compound 515] |
| 0.71 | 1.8 | 29000 | 99.7 | CCCCN(CCCC)C(=O)CN1CC(c2cc(OC)c3c(c2)OCO3)C(C(=O)O)C1CC(C)(C)C1OCCO1 (centres unmarked) [compound 516] |
| 1 | 0.43 | 30000 | 94.1 | CCCCN(CCCC)C(=O)CN1CC(c2ccc3c(c2)OCO3)C(C(=O)O)C1CCc1ccccc1OC (centres unmarked) [compound 517] |
| 0.42 | 0.33 | 360 | 99 | CCCCN(CCCO)C(=O)CN1CC(c2ccc3c(c2)OCO3)C(C(=O)O)C1c1ccc(OC)cc1 (centres unmarked) [compound 523] |
| 0.79 | 0.82 | 1700 | 99.2 | CCCON(CCC)C(=O)CN1CC(c2ccc3c(c2)OCO3)C(C(=O)O)C1c1ccc(OC)cc1 (centres unmarked) [compound 524] |
| 1.2 | 0.71 | – | 99.8 | CCCCN(C(=O)CN1CC(c2ccc3c(c2)OCO3)C(C(=O)O)C1c1ccc(OC)cc1)c1cccnc1 (centres unmarked) [compound 531] |
| 0.96 | 0.23 | 5900 | 97.2 | CCCCN(CCCC)C(=O)CN1C[C@H](c2ccc3c(c2)OCO3)[C@@H](C(=O)O)[C@@H]1CC(C)(C)CCC [compound 537] |
